Entries after “also recorded” stand apart in the source; their conditions may differ.
Key:
phosphorylated STAT3 = assay: P-STAT3 level in SW480 cells (immunoblot quantification); type: cell-based, human; settings: 10 μM, 48 h, normalized by actin
Experimental: Results for SW480 cells treated during 48 h with non-relevant antibody (called NT), compound 52, compound 33, compound 51 and comparative compound 61 at 10 μM, and sh110 cells correspond to the third fourth, fifth, sixth and last columns from the left to the right.
FIG. 3B: Quantification of P-STAT3 level (in percentage) normalized by actin. […] (Ordinate: Percentage of P-STAT3 level (scale 50)
Immunoprecipitation test were realized on human colorectal cancer cells (SW480 and HCT116 cell lines), using a control depleted in HSP110 called Sh110 and a not depleted cells in HSP110. STAT3 phosphorylation is then […] by compounds 33 and 52. Depletion of HSP110 in the negative control blocked the phosphorylation of STAT3 without affecting STAT3 overall levels (FIGS. 2 and 3).

SW480 cells = assay: Cell proliferation, Cell Trace Violet flow cytometry, SW480; type: cell-based, human; settings: SW480 cells with shRNA control, 10 μM, 96 h
Experimental: FIG. 4A: Relative quantification of cell proliferation in SW480 cells transfected with shRNA for shRNA control (shCtrl) (from the first to the fourth columns from left to right) or HSP110-silencing (sh110) (from the fifth to the last columns, from left to right) treated with Ctrl (DMSO), compound 33, compound 52, and comparative compound 61 at a concentration of 10 μM during 96 h (Histogram columns from the left to the right). Ordinate: Percentage of SW480 cell proliferation (scale 20) for the upper figure; Statistical analysis has been performed by ANOVA **: (p<0.05); ***: p<0.005. Western blot of HSP110 and actin (first and second line of blots) for the shCtrl SW480 cells and sh110 SW480 cells (first and second columns).
(§1) Colorectal cells lines were purchased from the American Type Culture Collection. CT-26 and HCT116 were cultured in Roswell Park Memorial Institute 1640 medium. […]
(§2) Proliferation was determined by staining cells with Cell Trace Violet (Invitrogen-C34557) according to the manufacturer's procedure. Cell divisions were detected over 96 h by flow cytometry (LSRII cytometer) and the number of cell generations was estimated by ModFit software. […]

HCT116 cells = assay: Cell proliferation, Cell Trace Violet flow cytometry, HCT116; type: cell-based, human; settings: HCT116 cells with shRNA control, 10 μM, 96 h
Experimental: FIG. 4B: Relative quantification of cell proliferation in HCT116 cells transfected with shRNA for shRNA control (shCtrl) (from the first to the fourth columns from left to right) or HSP110-silencing (sh110) ((from the fifth to the last columns, from left to right) left to right) treated with Ctrl (DMSO), compound 33, compound 52, and comparative compound 61 at a concentration of 10 μM during 96 h (Histogram from the left to the right). Ordinate: Percentage of HCT116 cell proliferation (scale 20) for the lower figure. Statistical analysis has been performed by ANOVA **: (p<0.05); ***: p<0.005. Western blot of HSP110 and actin (first and second line of blots) for the shCtrl HCT116 cells and sh110 HCT116 cells (first and second columns).
as §1, §2

HSP110/Myd88 interaction = biological target: T1, HSP110/Myd88 interaction (Homo sapiens, UniProt Q92598); assay: Immunoprecipitation of HSP110/Myd88 in DLBCL cell line; type: cell-based; settings: IP Myd88, Western Blot
T1 construct: endogenous in cells
Source text: FIG. 10A: Immunoprecipitation (IP) analysis of HSP110 (first line), Myd88 (second line), heavy chains (third line) and actin (fourth line) in large B cell lymphoma cell lines (DLBCL).
Left part of FIG. 10A (“Inputs”): treated with (from left to right column of the left part of FIG. 10A) DMSO, compound 52 (5052), compound 33 (5033) and compound 61 (5061) (Negative control);
Middle part of FIG. 10A (“IP Myd88”): treated with (from left to right column of the middle part of FIG. 10A) DMSO, compound 52, compound 33 and compound 61 (as the negative control); Myd88 was immunoprecipitated with an antibody specifically directed against Myd88.
MyD88 was immuno-precipitated from the cell line which has been non-treated or treated with the HSP110 inhibitors.

NFκB signaling pathway = assay: Western blot of NFκB signaling and Myd88 in DLBCL cell lines; type: cell-based, human; settings: for IkB phosphorylation (P-IKB): two DLBCL cell lines, 24 h of treatment
Experimental: FIG. 10B: Expression of HSP110 (first line), P-P65 (S276) (second line), P65 (third line), Myd88 (fourth line) and Actin (fifth line) in TMD8 human B cell lymphoma cell line (left part of FIG. 10B) or in HBL1 human diffuse large B-cell lymphoma cell line (right part of FIG. 10B), both cell lines being treated with Control (DMSO) and compound 33.
FIG. 10C: Expression, after 24 h of treatment, of HSP110 (first line), P-IKB (second line), IKB (third line) and Actin (fourth line) in TMD8 human B cell lymphoma cell line (right part of FIG. 10C) or in OCI-Ly3 human diffuse large B-cell lymphoma cell line (left part of FIG. 10C), both cell lines being treated with Control (DMSO), control compound 61, compound 52 and compound 33.

T1 sequence (Q92598 2-858 limits assumed): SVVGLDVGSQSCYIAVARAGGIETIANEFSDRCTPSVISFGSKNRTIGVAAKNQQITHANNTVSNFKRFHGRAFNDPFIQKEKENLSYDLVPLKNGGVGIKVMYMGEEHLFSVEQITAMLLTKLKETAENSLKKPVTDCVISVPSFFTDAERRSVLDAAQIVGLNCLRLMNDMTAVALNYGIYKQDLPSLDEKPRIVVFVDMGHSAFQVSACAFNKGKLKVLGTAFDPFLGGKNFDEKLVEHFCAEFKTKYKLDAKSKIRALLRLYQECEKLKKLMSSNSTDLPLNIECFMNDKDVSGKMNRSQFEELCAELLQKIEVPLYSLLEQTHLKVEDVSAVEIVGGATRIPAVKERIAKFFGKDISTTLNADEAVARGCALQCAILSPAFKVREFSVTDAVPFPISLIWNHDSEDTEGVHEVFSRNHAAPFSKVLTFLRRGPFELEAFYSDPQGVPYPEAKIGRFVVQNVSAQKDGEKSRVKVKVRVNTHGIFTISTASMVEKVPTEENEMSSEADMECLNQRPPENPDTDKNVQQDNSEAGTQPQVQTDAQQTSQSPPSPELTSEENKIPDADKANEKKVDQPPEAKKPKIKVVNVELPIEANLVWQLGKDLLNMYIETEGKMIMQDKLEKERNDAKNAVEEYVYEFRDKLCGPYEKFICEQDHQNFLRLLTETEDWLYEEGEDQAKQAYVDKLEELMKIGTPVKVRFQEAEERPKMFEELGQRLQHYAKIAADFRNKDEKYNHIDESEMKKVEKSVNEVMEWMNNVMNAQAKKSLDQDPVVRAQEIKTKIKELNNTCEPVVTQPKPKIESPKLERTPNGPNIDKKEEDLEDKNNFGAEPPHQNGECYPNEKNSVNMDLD

| Compound | P-STAT3 level (phosphorylated STAT3) | hampering of cell proliferation (SW480 cells) [%] | hampering of cell proliferation (HCT116 cells) | HSP110/Myd88 interaction (HSP110/Myd88 interaction) | NFκB signaling pathway (P-p65) (NFκB signaling pathway; TMD8 and HBL1 DLBCL cell lines) | IkB phosphorylation (P-IKB) (NFκB signaling pathway) | Myd88 expression (NFκB signaling pathway; TMD8 and HBL1 DLBCL cell lines) |
| --- | --- | --- | --- | --- | --- | --- | --- |
| COc1cc(-c2cnc(-c3cnc(-c4cc(OC)c(OC)c(OC)c4)c(C)c3)c(/C=C/c3ccccc3)c2)cc(OC)c1OC [compound 52, (E)-5′-Methyl-3-styryl-5,6′-bis(3,4,5-trimethoxyphenyl)-2,3′-bipyridine] | about 20% | 82 | around 40% | abrogate | strong decrease | decrease | – |
| COc1ccc(-c2ncc(-c3ncc(-c4cc(OC)c(OC)c(OC)c4)cc3/C=C/c3ccccc3)cc2C)cc1OC [compound 33, (E)-6′-(3,4-Dimethoxyphenyl)-5′-methyl-3-styryl-5-(3,4,5-trimethoxyphenyl)-2,3′-bipyridine] | ~60% | 60 | around 40% | abrogate | reduces; also recorded: strong decrease | decrease | reduces |

From patent publication US12070452B2, “Compounds targeting HSP110 protein for cancer treatment” (INSERM (Institut National de la Santé et de la Recherche …, priority 2018, dated 2024)
